We go through four compounds from ChEMBL document CHEMBL1157773, “Cytotoxic polyphenols from the marine-derived fungus Penicillium expansum” (J Nat Prod, 2010).

Usually IC50 stands for the concentration needed to halve the response being measured.

Experiment [1] relates to HL-60. Description: Cytotoxicity against human HL60 cells after 72 hrs by MTT assay. Type of experiment: functional, cell-based. Background: Tetrazolium assays rely on reduction of a dye to a coloured formazan, in cell work by metabolically active cells.
For experiment [2], the system named is A549. Description: Cytotoxicity against human A549 cells after 72 hrs by SRB assay. The experiment is classed as functional, cell-based. In general terms: In SRB staining, fixed cells bind dye roughly in proportion to their protein.
The mark [3] stands for this setting: Homo sapiens, HL-60, 72 h, read-out: IC50.

With `COC(C)(CCCC(C)C)c1ccc(Cc2c(C)cc(Oc3cc(C)cc(O)c3)cc2O)cc1O` (single isomer, unassigned) [EXPANSOL A], the IC50 in experiment [1] (setting [3]) was 15.7 µM. As for `C=C(C)CCC[C@](C)(O)c1ccc(C(=O)O)cc1O` [11-DEHYDROSYDONIC ACID], the concentration for half-maximal inhibition (IC50) entry in experiment [1] (hl-60) and in experiment [2] was “Not Active” in each case. As to `CC(=O)OC[C@@H](C)CCC[C@](C)(O)c1ccc(C(=O)O)cc1O` [12-ACETOXYSYDONIC ACID], the half-maximal inhibitory concentration (IC50) entry in experiment [1] (hl-60) and in experiment [2] was “Not Active” in each case. On to `Cc1cc(O)cc(Oc2cc(C)c(Cc3ccc([C@](C)(O)CCCC(C)C)c(O)c3)c(O)c2)c1` [EXPANSOL B], for which, in experiment [1] (setting [3]), the half-inhibitory concentration (IC50) amounted to 5.4 µM.
